The target in one data set is T1, rat NaP2b (SLC34A2) (Rattus norvegicus, UniProt Q9JJ09).
T1 construct: host or cells: HEK293
T1 sequence (Q9JJ09 1-695): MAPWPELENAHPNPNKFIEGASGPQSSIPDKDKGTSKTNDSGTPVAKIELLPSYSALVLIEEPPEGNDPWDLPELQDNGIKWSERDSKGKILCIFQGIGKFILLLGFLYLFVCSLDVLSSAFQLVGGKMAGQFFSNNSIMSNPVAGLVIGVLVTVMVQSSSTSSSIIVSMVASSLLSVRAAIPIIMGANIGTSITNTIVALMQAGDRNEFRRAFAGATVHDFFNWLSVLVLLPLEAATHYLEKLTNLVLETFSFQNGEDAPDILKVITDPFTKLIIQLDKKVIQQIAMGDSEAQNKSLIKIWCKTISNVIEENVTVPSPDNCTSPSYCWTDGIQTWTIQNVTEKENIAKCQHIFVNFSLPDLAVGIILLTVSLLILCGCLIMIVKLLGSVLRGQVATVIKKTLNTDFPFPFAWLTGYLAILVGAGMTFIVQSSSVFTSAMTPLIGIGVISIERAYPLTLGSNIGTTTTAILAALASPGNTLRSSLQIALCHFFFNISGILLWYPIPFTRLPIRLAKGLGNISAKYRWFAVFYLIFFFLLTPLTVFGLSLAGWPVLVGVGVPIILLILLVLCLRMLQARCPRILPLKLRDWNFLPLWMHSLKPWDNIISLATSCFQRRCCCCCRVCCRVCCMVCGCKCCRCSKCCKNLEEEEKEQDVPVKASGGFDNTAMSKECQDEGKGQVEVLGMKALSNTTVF
Kind of data set: Inhibition of NaP2b-mediated Pi uptake into transfected HEK293 cells (rat). The data set is classed as cell-based. The conditions noted are these: 33P Pi uptake, 100 uM KH2PO4, read-out: pIC50 range for rat Nap2b (converted). The protocol: (§1) HEK293 cells were obtained from the American Type Culture collection and propagated per their instructions. Expression clones for rat and human NaP2b (SLC34A2) were obtained from Open Biosystems (Catalog numbers MRN1768-9510282, and MHS1010-99823026, respectively). The sequence of the human protein was mutated to insert a threonine after residue 37, and to introduce a N39D mutation.
(§2) The rate of phosphate (Pi) uptake into HEK293 cells was measured using a modification of the method described by Mohrmann et al. (Mohrmann, I., Mohrmann, M., Biber, J., and Murer, H. (1986) Am. J. Phys. 250(3 Pt 1):G323-30.) Transfected HEK293 cells were treated with a pharmacological agent to minimize endogenous PiT-mediated phosphate transport activity, such that the only remaining sodium-dependent phosphate transport activity is that which was bestowed by introduction of the NaP2b genes.
Cells were seeded into 96-well plates at 25,000 cells/well and cultured overnight. Lipofectamine 2000 (Invitrogen) was used to introduce the NaP2b cDNA, and the cells were allowed to approach confluence during a second overnight incubation. […] Cells were then overlayed with either choline uptake buffer or sodium uptake buffer (14 mM Tris, 137 mM sodium chloride, 5.4 mM KCl, 2.8 mM CaCl2, 1.2 mM MgSO4, 100 uM KH2PO4, PiT-silencing agent, 1 mg/mL Bovine Serum Albumin, pH 7.4) containing 6-9 uCi/mL ^33P orthophosphoric acid (Perkin Elmer) and test compound. Each compound was tested at twelve concentrations ranging from 0.1 nM to 30 uM. Assays were run in duplicate.
(§3) After incubation for 3-30 minutes at room temperature, assay mixtures were removed, and the cells were washed twice with ice cold stop solution (137 mM sodium chloride, 14 mM Tris, pH 7.4). Cells were lysed by addition of 20 μL 0.1% Tween 80 followed by 100 μL scintillation fluid, and counted using a TopCount (Perkin Elmer).
(§4) pIC50 (the negative log of the IC50) values of the test compounds were calculated using GraphPad Prism.

The target of another data set is T2, human NaP2b (SLC34A2) (Homo sapiens, UniProt O95436).
T2 construct: host or cells: HEK293
T2 sequence (O95436 1-690): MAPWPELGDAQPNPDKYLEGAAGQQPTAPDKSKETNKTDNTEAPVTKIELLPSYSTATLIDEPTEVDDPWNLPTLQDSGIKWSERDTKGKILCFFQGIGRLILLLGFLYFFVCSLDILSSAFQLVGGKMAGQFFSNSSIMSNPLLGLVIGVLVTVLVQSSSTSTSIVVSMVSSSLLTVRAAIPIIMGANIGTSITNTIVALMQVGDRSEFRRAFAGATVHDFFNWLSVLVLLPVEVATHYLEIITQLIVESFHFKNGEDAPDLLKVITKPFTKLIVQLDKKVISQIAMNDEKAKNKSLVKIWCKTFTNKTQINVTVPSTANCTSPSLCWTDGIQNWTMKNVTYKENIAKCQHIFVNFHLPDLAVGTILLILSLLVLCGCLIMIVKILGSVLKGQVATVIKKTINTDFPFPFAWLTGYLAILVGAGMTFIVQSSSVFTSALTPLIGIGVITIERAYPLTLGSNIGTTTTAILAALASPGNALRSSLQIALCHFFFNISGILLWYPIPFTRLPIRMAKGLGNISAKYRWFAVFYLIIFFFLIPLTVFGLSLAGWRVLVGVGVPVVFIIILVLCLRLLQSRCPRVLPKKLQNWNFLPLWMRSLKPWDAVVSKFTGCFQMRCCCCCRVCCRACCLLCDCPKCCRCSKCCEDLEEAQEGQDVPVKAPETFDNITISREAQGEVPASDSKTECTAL
Put plainly: Inhibition of NaP2b-mediated Pi uptake into transfected HEK293 cells (human). The format is cell-based. To be noted: 33P Pi uptake, 100 uM KH2PO4, human protein with Thr inserted after residue 37 and N39D, read-out: pIC50 range for human (converted). On the procedure:
as §1, §2
Cells were seeded into 96-well plates at 25,000 cells/well and cultured overnight. […]
as §3, §4

A further data set concerns NaPi2b. Put plainly: Competition with phosphate: Pi uptake assay repeated at 2.1 vs 0.1 mM phosphate. The format is cell-based. To be noted: potency at 2.1 vs 0.1 mM phosphate. On the procedure:
To ascertain if an inhibitor was competitive for binding with phosphate, the procedure was repeated, but raising the concentration of the substrate in the assay mixture from 0.1 to 2.1 mM phosphate.

The test system of data set [1] is uptake of phosphorus from the intestine. Put plainly: In vivo evaluation, co-dosing in chow: inhibition of uptake of phosphorus from the intestine. Set-up: species or system Sprague-Dawley rats. To be noted: rat, compound in chow, mean drug dose 115 mg/kg/day, versus control group. The source says: Male, 7-week-old Sprague-Dawley rats (Charles-River laboratories international, Hollister, Calif.) were allowed to acclimate for a minimum of 3 days. The experiment was initiated by switching animals to a synthetic diet (0.6% phosphorus and 0.6% calcium, Harlan Teklad TD.84122) for four days. After this time, the animals were placed into metabolic cages for daily monitoring of food and water consumption, as well as urine and fecal collections. Test compounds were incorporated into the powdered diet listed above containing 3% chocolate flavoring (w/w, BioServ #7345) at 1.3 mg test compound per gram of diet to achieve an average daily nominal dose of 100 mg/kg/day. The actual dose received by each animal was later determined by measuring prepared diet consumption and body weight. Urine samples were collected in three daily periods from 24-48, 48-72, and 72-96 hours of drug dosing. […] Phosphorus levels in the urine were determined by anion exchange chromatography using a Dionex ICS-3000 ion chromatography system. […] Elution of urine phosphate ions was monitored via conductivity detector and reported as ppm relative to a standard ion solution containing phosphate. Daily urinary P output relative to the P consumed in the prepared diet for each animal was calculated. […] The differences between the means of control and treated groups were evaluated by t tests.

Data set [2] can be described thus: Determination of compound Cmax and AUC after oral gavage. The data set is classed as in vivo, Sprague-Dawley rats. The conditions noted are these: Sprague-Dawley, rat plasma; for AUC: blood at 0.5-4 h. The protocol: Blood samples were processed to plasma using K2EDTA as an anticoaglulant. Plasma samples were treated with acetonitrile containing an internal standard, precipitated proteins removed by centrifugation. Supernatants were analyzed by LC-MS/MS and compound concentrations were determined by interpolated from a standard curve prepared in plasma. All compounds were orally dosed at the dosage shown, and pharmacokinetic parameters determined.

Data set [3] in a line: Fecal recovery of orally administered compounds. The data set is classed as in vivo, Sprague-Dawley rats. The conditions noted are these: rat, oral gavage, feces collected until 48 hr after dosing; same animals as Example 6. The protocol:
The animals were kept in metabolic cages and feces were collected from the time of dosing until 48 hr after dosing. Upon collection, feces was dried by lyophilization and ground to a visually homogenous powder. Duplicate samples of ground feces from each individual animal were weighed out and extracted using organic solvent. Extracted samples were then diluted into mobile phase and test compound levels were quantitatively determined by LC-MS/MS analysis as described in Example 6 except that the standard curve was prepared in a feces matrix.

Turning to `CN(CCN1CCOCC1)C(=O)c1cccc(C(=O)Nc2ccc(N3CCCCC3)cc2C(=O)c2cc3ccc(C(F)(F)F)cc3[nH]2)c1` [Example 2, N1-Methyl-N1-(2-morpholinoethyl)-N3-(4-(piperidin-1-yl)-2-(6-(trifluoromethyl)-1H-indole-2-carbonyl)phenyl)isophthalamide 2,2,2-trifluoroacetate], the IC50 on rat NaP2b (SLC34A2) and on human NaP2b (SLC34A2) was below 1000 nM throughout. Besides, the “Competitive with respect to Pi?” value in the data set with NaPi2b is “No”. Further, in data set [1], the “Mean % inhibition Urine Pout/P consumed” value amounted to 20%. Moreover, the Cmax (usually the peak of the concentration-time curve) in data set [2] (actual oral dose 11 mg/kg, LLOQ 0.5 ng/mL) came to 91 ng/mL. The AUC (commonly concentration integrated over time) in data set [2] (actual oral dose 11 mg/kg) was below 97 ng·h/mL. In addition, the “% recovered in feces” value in data set [3] was determined as 2.9%.

On to `COCCNC(=O)c1cccc(SCc2cccc(C(=O)Nc3ccc(N4CCCCC4)cc3C(=O)c3cc4ccc(C(F)(F)F)cc4[nH]3)c2)c1` [Example 3, N-(2-Methoxyethyl)-3-(3-(4-(piperidin-1-yl)-2-(6-(trifluoromethyl)-1H-indole-2-carbonyl)phenylcarbamoyl)benzylthio)benzamide], for which the IC50 on rat NaP2b (SLC34A2) was 2000 to 25100 nM.

`O=C(O)CCSCc1cccc(C(=O)Nc2ccc(N3CCCCC3)cc2C(=O)c2cc3ccc(C(F)(F)F)cc3[nH]2)c1` [Example 1, 3-(3-((4-(Piperidin-1-yl)-2-(6-(trifluoromethyl)-1H-indole-2-carbonyl)phenyl)carbamoyl)benzylthio)propanoic acid]: the IC50 on rat NaP2b (SLC34A2) and at human NaP2b (SLC34A2) was 1000 to 7940 nM each time. In data set [2] (actual oral dose 7.5 mg/kg, LLOQ 10 ng/mL), the Cmax came to 299 ng/mL. The same molecule returned an area under the curve (AUC) in data set [2] (actual oral dose 7.5 mg/kg) of 433 ng·h/mL. The “% recovered in feces” value in data set [3] is given as 34%.
